# Measurements taken from patent US4156000A, “Cyclopenta[b]thiophene derivatives” (Hexachimie, priority 1976, dated 1979).
# Where a name gives a salt, the structure may show the parent alone.
# Columns and labels:
# [1] = tested on: pain reactions (abdominal contortions); experiment: Analgesic activity: phenylbenzoquinone-induced pain reactions, oral administration; type: in vivo, mice (male, SPF1, strain OF1); settings: Mus musculus; for inhibition in vivo at 64 mg/kg: 64 mg/kg oral administration; for inhibition in vivo at 256 mg/kg: 256 mg/kg oral administration; for inhibition in vivo at 16 mg/kg: 16 mg/kg oral administration; for inhibition in vivo at 32 mg/kg: 32 mg/kg oral administration; for inhibition in vivo at 8 mg/kg: 8 mg/kg oral administration; for inhibition in vivo at 4 mg/kg: 4 mg/kg oral administration
# Method: Batches of 6 male mice (SPF1, strain OF1), weighing 19-20 g each are given the product to be tested, by oral administration. One hour afterwards, each mouse is injected intraperitoneally with 0.3 cm^3 of an 0.02% strength phenylbenzoquinone solution and from the 5th to the 10th minute after this latter treatment, the number of pain reactions (abdominal contortions) is counted. The table which follows gives the percentage inhibition of these reactions.
# [2] = tested on: rear paw which has received the carrageenin; experiment: Anti-inflammatory activity: carrageenin-induced rear paw swelling, oral administration; type: in vivo, rats (male SPF, strain OFA); settings: for inhibition in vivo at 4 mg/kg / inhibition in vivo at 16 mg/kg / inhibition in vivo at 64 mg/kg / inhibition in vivo at 128 mg/kg / inhibition in vivo at 256 mg/kg: Rattus norvegicus, read-out: % of inhibition (reduction of swelling); for inhibition in vivo at 4 mg/kg: 4 mg/kg oral administration; for inhibition in vivo at 16 mg/kg: 16 mg/kg oral administration; for inhibition in vivo at 128 mg/kg: 128 mg/kg oral administration; for inhibition in vivo at 256 mg/kg: 256 mg/kg oral administration
# Method: Batches of 12 male SPF rats, strain OFA, weighing 120-130 g each, are given the product to be tested by oral administration 2 hours before and 30 minutes before (1/2 dose each time) subcutaneous plantar injection of 0.05 cm^3 of a 1% solution of carrageenin. The volume of the rear paw which has received the carrageenin is measured at regular intervals.
Compound,inhibition in vivo at 64 mg/kg [1] [%],inhibition in vivo at 256 mg/kg [1] [%],inhibition in vivo at 4 mg/kg [2] [%],inhibition in vivo at 16 mg/kg [2] [%],inhibition in vivo at 64 mg/kg ([2]; 64 mg/kg oral administration) [%],inhibition in vivo at 128 mg/kg [2] [%],inhibition in vivo at 256 mg/kg [2] [%],inhibition in vivo at 16 mg/kg [1] [%],inhibition in vivo at 32 mg/kg [1] [%],inhibition in vivo at 8 mg/kg [1] [%],inhibition in vivo at 4 mg/kg [1] [%],% of inhibition (reduction of swelling) ([2]; 64 mg/kg oral administration) [Z]
"CC(C)C1Cc2cc(CC(=O)OCCN3CCOCC3)sc2C1 (stereo not shown) [Example 39, Hydrochloride of the morpholinoethyl ester of (5-isopropyl-4,5-dihydro-6H-cyclopenta[b]thienyl-2)-acetic acid]",12,53,7,23,20,53,56,,,,,
"CC(C)C1Cc2cc(CC(=O)O)sc2C1 (stereo not shown) [Example 18, (5-Isopropyl-4,5-dihydro-6H-cyclopenta[b]thienyl-2)-acetic acid]",61,,0,0,31,47,57,4,27,,,
"CC(C(=O)OCCN1CCOCC1)c1cc2c(s1)CC(C(C)C)C2 (stereo not drawn) [Example 36, Hydrochloride of the morpholinoethyl ester of α-methyl-(5-isopropyl-4,5-dihydro-6H-cyclopenta[b]thienyl-2)-acetic acid]",,,29,30,62,56,66,80,84,23,,
"CCC1Cc2cc(C(C)C(=O)OCCN(C)C)sc2C1 (stereo not drawn) [Example 34, Hydrochloride of the dimethylaminoethyl ester of α-methyl-(5-ethyl-4,5-dihydro-6H-cyclopenta[b]thienyl-2)-acetic acid]",,,3,12,45,64,82,74,95,46,21,
"CCC1Cc2cc(CC(=O)OCCN(C)C)sc2C1 (stereo not shown) [Example 33, Hydrochloride of the dimethylaminoethyl ester of (5-ethyl-4,5-dihydro-6H-cyclopenta[b]thienyl-2)-acetic acid]",17,95,2,17,55,54,52,37,,,,
CC(C(=O)OCCN(C)C)c1cc2c(s1)CC(C(C)C)C2 (stereo not shown) [Example 37],,,5,35,,63,58,42,80,53,10,45
CCC1Cc2cc(C(C)C(=O)O)sc2C1 (stereo not shown) [23 & 27],98,,,30,67,66,56,35,79,7,,
"CCC1Cc2cc(CC(=O)O)sc2C1 (stereo not shown) [Example 17, (5-Ethyl-4,5-dihydro-6H-cyclopenta[b]thienyl-2)-acetic acid]",63,,17,24,55,52,66,17,58,,,
"CCC1Cc2cc(C(C)C(=O)OCCN3CCOCC3)sc2C1 (stereo not drawn) [Example 30, Hydrochloride of the morpholinoethyl ester of α-methyl(5-ethyl-4,5-dihydro-6H-cyclopenta[b]thienyl-2)-acetic acid]",93,,18,38,53,67,79,6,85,9,,
CC(C(=O)O)c1cc2c(s1)CC(C(C)C)C2 (stereo not shown) [24 & 28],96,,0,32,63,59,46,66,89,35,0,
"CCC1Cc2cc(CC(=O)OCCN3CCOCC3)sc2C1 (stereo not shown) [Example 32, Hydrochloride of the morpholinoethyl ester of (5-ethyl-4.5-dihydro-6H-cyclopenta[b]thienyl-2)-acetic acid]",53,,0,16,20,51,53,25,48,,,
"CC(C)C1Cc2cc(CC(=O)OCCN(C)C)sc2C1 (stereo not shown) [Example 40, Hydrochloride of the dimethylaminoethyl ester of (5-isopropyl-4,5-dihydro-6H-cyclopenta[b]thienyl-2)-acetic acid]",31,88,8,7,13,22,32,0,,,,
